Results: US20140371165A1, “Identification of NSC23925 Isomers to Reverse Multidrug Resistance in Human Cancers” (priority 2012, published 2014)
pEC50: −log10 of the molar value. Structures can show the parent of a compound that is named as a salt.

How the values were obtained:
SW480TR = experiment: MTT cytotoxicity assay and reversal of MDR in SW480TR; type: cell-based, human
Excerpt: A panel of parental cancer cell line and their daughter resistant cell lines, displaying MDR phenotype were used in this study. Human ovarian cancer cell line SKOV-3, breast cancer cell line MCF-7 and colon cancer cell line SW480, the osteosarcoma cell line U-2OS, KHOS, uterine sarcoma cell line MESSA and its doxorubicin selected drug resistant cell line MESSA/Dx5, non-small cell lung cancer cell line H-69 and its doxorubicin selected drug resistant cell line H-69AR (overexpress MRP1) were obtained from the ATCC (Rockville, Md.). Dr. Efstathios Gonos (Institute of Biological Research & Biotechnology, Athens, Greece) provided the doxorubicin resistant U-2OS R2 (referred in the text below as U-2OSDR), KHOS R2 cell lines. Dr. Erasmus Schneider (Wadsworth Center, Albany) provided the mitoxantrane resistant breast cancer MCF-7/MX (overexpress BCRP) cell line. All the cell lines were cultured in RPMI 1640 (Invitrogen, Carlsbad, Calif.) supplemented with 10% fetal bovine serum, 100-units/ml penicillin and 100 μg/ml streptomycin (Invitrogen). Cells were incubated at 37° C. in 5% CO2-95% air atmosphere and passaged when near confluent monolayers were achieved using 2% trypsin-EDTA solution. […] The fresh chemotherapy drugs were obtained from the pharmacy at the Massachusetts General Hospital and stored at −20° C.
To evaluate for reversal of Pgp-mediated MDR, SKOV-3TR, MCF-7adr and SW480TR cell lines were seeded into 96-well tissue culture plate at 2,000 cells per well with varying concentrations of chemotherapy drugs and NSC23925b for 6 days. Cell proliferation IC50 (concentration required for 50% inhibition) and MDR reversal IC50 were determined from dose-response curves carried out in triplicate in 96-well plate. Fold of reverse resistance for individual drugs were defined as the IC50 of MDR cells without NSC23925b treatment divided by the IC50 of MDR cells treated with NSC23925b. […] Drug cytotoxicity was assessed in vitro using the MTT assay as previously described. […] Response curves were fitted with use of GraphPad PRISM 4 software (GraphPad Software).
MCF-7adr and SW480TR cells were treated with paclitaxel (FIGS. 2A-B), doxorubicin (FIGS. 2C-D) or mitoxantrane (FIGS. 2E-F) and NSC23925b in RPMI1640 complete media at the indicated concentrations. The relative sensitivity of each line to the indicated drugs was determined by MTT analysis 6 days post-treatment.

Pgp = target: T1, Pgp (Homo sapiens, UniProt P08183); experiment: Calcein AM drug efflux fluorescence microscopy assay (Vybrant multi-drug resistance kit); type: cell-based
T1 construct: multidrug resistant cells expressing high levels of Pgp rapidly extrude non-fluorescent calcein AM from the plasma membrane; endogenous in cells; host or cells: MCF-7adr and SW480TR drug-resistant cells
Excerpt: The Vybrant™ multi-drug resistance assay kit (Invitrogen/Molecular Probes) was used to measure drug efflux properties of different resistant cell lines. This assay utilizes the fluorogenic dye calcein acetoxymethyl ester (calcein AM) as a substrate for efflux activity of Pgp or other membrane pump ABC proteins. Calcein AM is taken up by cells and hydrolyzed by cytoplasmic esterases to fluorescent calcein. Calcein […] is well retained in the cytosol. However, multidrug resistant cells expressing high levels of Pgp rapidly extrude non-fluorescent calcein AM from the plasma membrane, reducing accumulation of fluorescent calcein in the cytosol. Studies were carried out as described. In brief, drug resistant cells (5,000 cells per well) were cultured in 96-well plate for 24 hours. Triplicated cultures of cells were treated with different concentrations of NSC23925b for one hour and then incubated in calcein AM in 100 μl total volume. After 30 minutes, images were acquired by Nikon Eclipse Ti-U fluorescence microscope (Nikon Corp.) equipped with a SPOT RT digital camera (Diagnostic Instruments, Inc., Sterling Heights, Mich.).
The effect of NSC23925b on the uptake and efflux of calcein AM in MCF-7adr and SW480TR was determined. […] The calcein-AM assay was optimized and performed using the Vybrant Multidrug Resistance kit. Cells were seeded at 50,000 cells/well (100 μl of culture medium) in 96-well plate and incubated for 24 hours. MCF-7adr cells in triplicate were treated with NSC23925b for one hour and then incubated in calcein AM for 30 minutes. The cell fluorescence images were acquired by a fluorescence microscope. NSC23925b has a prominent effect on the accumulation of calcein AM in these cells starting at a concentration as low as 1 nM.

MCF-7/MX = experiment: MTT reversal of BCRP-mediated MDR in MCF-7/MX; type: cell-based, human; conditions: non-Pgp expressing drug resistant cell line
Excerpt: A panel of parental cancer cell line and their daughter resistant cell lines, displaying MDR phenotype were used in this study. Human ovarian cancer cell line SKOV-3, breast cancer cell line MCF-7 and colon cancer cell line SW480, the osteosarcoma cell line U-2OS, KHOS, uterine sarcoma cell line MESSA and its doxorubicin selected drug resistant cell line MESSA/Dx5, non-small cell lung cancer cell line H-69 and its doxorubicin selected drug resistant cell line H-69AR (overexpress MRP1) were obtained from the ATCC (Rockville, Md.). Dr. Efstathios Gonos (Institute of Biological Research & Biotechnology, Athens, Greece) provided the doxorubicin resistant U-2OS R2 (referred in the text below as U-2OSDR), KHOS R2 cell lines. Dr. Erasmus Schneider (Wadsworth Center, Albany) provided the mitoxantrane resistant breast cancer MCF-7/MX (overexpress BCRP) cell line. […]
To evaluate for reversal of Pgp-mediated MDR, SKOV-3TR, MCF-7adr and SW480TR cell lines were seeded into 96-well tissue culture plate at 2,000 cells per well with varying concentrations of chemotherapy drugs and NSC23925b for 6 days. […] Drug cytotoxicity was assessed in vitro using the MTT assay as previously described. Drugs at the concentrations utilized in the MTT assay were performed in the absence of cells to verify no change in absorbance. […]

T1 sequence (P08183 whole entry): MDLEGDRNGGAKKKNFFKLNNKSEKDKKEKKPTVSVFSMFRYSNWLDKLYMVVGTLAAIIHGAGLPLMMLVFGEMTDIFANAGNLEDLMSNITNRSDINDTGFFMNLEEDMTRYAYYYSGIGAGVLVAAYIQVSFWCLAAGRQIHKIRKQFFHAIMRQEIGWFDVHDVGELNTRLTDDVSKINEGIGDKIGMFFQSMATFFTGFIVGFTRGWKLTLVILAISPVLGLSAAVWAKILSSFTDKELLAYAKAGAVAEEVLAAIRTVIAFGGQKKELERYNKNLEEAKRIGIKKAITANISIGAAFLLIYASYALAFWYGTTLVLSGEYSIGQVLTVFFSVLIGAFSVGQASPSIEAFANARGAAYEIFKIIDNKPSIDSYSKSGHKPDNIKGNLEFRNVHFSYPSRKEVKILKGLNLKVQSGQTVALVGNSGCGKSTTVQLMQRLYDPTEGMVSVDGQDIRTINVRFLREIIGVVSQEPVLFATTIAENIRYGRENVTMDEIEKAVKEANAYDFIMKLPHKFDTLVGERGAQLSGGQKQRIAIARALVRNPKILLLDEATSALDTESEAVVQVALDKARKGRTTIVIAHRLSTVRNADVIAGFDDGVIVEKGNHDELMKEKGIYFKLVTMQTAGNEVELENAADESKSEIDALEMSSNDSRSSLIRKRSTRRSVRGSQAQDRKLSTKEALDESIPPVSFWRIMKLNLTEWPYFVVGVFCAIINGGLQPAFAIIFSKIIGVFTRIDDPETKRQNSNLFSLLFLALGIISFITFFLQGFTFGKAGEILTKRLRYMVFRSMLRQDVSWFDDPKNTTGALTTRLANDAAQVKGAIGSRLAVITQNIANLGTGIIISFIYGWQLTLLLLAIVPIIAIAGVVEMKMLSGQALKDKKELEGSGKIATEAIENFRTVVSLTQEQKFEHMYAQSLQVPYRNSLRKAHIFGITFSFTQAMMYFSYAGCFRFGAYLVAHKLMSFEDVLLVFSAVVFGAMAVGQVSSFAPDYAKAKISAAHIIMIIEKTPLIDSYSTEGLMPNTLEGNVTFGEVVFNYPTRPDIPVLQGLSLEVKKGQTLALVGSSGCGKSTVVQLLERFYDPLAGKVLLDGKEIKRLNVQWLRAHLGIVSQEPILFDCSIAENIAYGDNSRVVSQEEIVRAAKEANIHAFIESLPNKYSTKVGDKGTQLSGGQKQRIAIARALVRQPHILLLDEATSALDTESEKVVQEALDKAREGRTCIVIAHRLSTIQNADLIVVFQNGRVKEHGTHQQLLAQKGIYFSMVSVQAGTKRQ

COc1ccc(-c2cc([C@H](O)[C@H]3CCCCN3)c3ccccc3n2)cc1 [NSC23925b, (2-(4-methoxyphenyl)quinolin-4-yl)(piperidin-2-yl)methanol hydrochloride]
fold-reversal of drug resistance (SW480TR; Doxorubicin, NSC23925b 0.1 μM): 1.7 fold | fold-reversal of drug resistance (SW480TR; Doxorubicin, NSC23925b 0.5 μM): 3 fold | fold-reversal of drug resistance (SW480TR; Doxorubicin, NSC23925b 1 μM): 8 fold | reverse paclitaxel, doxorubicin, and mitoxantrane resistance (SW480TR; MTT 6 days post-treatment): able to reverse | fold-reversal of drug resistance (SW480TR; Mitoxantrane, NSC23925b 0.1 μM): 1.2 fold | fold-reversal of drug resistance (SW480TR; Mitoxantrane, NSC23925b 0.5 μM): 3 fold | fold-reversal of drug resistance (SW480TR; Mitoxantrane, NSC23925b 1 μM): 14 fold | fold-reversal of drug resistance (SW480TR; Paclitaxel, NSC23925b 0.1 μM): 1.3 fold | fold-reversal of drug resistance (SW480TR; Paclitaxel, NSC23925b 0.5 μM): 8 fold | fold-reversal of drug resistance (SW480TR; Paclitaxel, NSC23925b 1 μM): 13 fold | lowest concentration with prominent effect on accumulation of calcein AM (Pgp; MCF-7adr and SW480TR cells): 1 nM | intracellular accumulation of calcein AM (Pgp; MCF-7adr and SW480TR, 1 h pretreatment, calcein AM 30 minutes): increase intracellular accumulation of calcein AM in these cell lines in a dose-dependent manner | near maximal reversal of accumulation deficit (Pgp; calcein AM, MCF-7adr and SW480TR cells): 500 nM | pEC50 (Pgp; calcein AM, MCF-7adr and SW480TR cells, read-out: Half-maximal reversal of accumulation deficit): 7.00 | reversal of BCRP mediated drug resistance (MCF-7/MX): unable to reverse drug resistance
